Laboratory results taken from patent publication US5789431A, “Naphthoquinone antitumor compound and method” (The University of North Carolina at Chapel Hill, priority 1996, dated 1998).
Blank lines part the entries; values can stand above or below the molecule they belong to.

Key:
MDA-N = test: in vitro breast cancer cell growth inhibition (NCI screen)
SK-MEL-28 = test: in vitro melanoma cell growth inhibition (NCI screen)
UACC-62 = test: as above
SK-MEL-2 = test: as above
MCF-7 = test: in vitro breast cancer cell growth inhibition (NCI screen)
M14 = test: in vitro melanoma cell growth inhibition (NCI screen)
OVCAR-3 = test: in vitro ovarian cancer cell growth inhibition (NCI screen)
OVCAR-5 = test: as above
MDA-MB-435 = test: in vitro breast cancer cell growth inhibition (NCI screen)
HL-60(TB) = test: in vitro leukemia cell growth inhibition (NCI screen)
SF-539 = test: in vitro CNS cancer cell growth inhibition (NCI screen)
UACC-257 = test: in vitro melanoma cell growth inhibition (NCI screen)
MALME-3M = test: as above
SK-MEL-5 = test: as above
NCI-H522 = test: in vitro non-small cell lung cancer cell growth inhibition (NCI screen)
HOP-92 = test: as above
HCT-15 = test: in vitro colon cancer cell growth inhibition (NCI screen)
LOX1MVI = test: in vitro melanoma cell growth inhibition (NCI screen)
IGROV1 = test: in vitro ovarian cancer cell growth inhibition (NCI screen)
COLO-205 = test: in vitro colon cancer cell growth inhibition (NCI screen)
OVCAR-4 = test: in vitro ovarian cancer cell growth inhibition (NCI screen); details: OVACR-4
SW 620 = test: in vitro colon cancer cell growth inhibition (NCI screen)
NCI-H460 = test: in vitro non-small cell lung cancer cell growth inhibition (NCI screen)
SNB-19 = test: in vitro CNS cancer cell growth inhibition (NCI screen)
NCI-H23 = test: in vitro non-small cell lung cancer cell growth inhibition (NCI screen)
MDA-MB-231/ATCC = test: in vitro breast cancer cell growth inhibition (NCI screen)
T-47D = test: as above
NCI-H266 = test: in vitro non-small cell lung cancer cell growth inhibition (NCI screen)
BT-549 = test: in vitro breast cancer cell growth inhibition (NCI screen)
PC-3 = test: in vitro prostate cancer cell growth inhibition (NCI screen)
human tumor cell lines = format: cell-based; details: for GI50: Homo sapiens, cancer cell panel, general / most cell lines, read-out: logGI50 values in the cancer cell line panel (converted)
TK-10 = test: in vitro renal cancer cell growth inhibition (NCI screen)
SN12C = test: as above
HT 29 = test: in vitro colon cancer cell growth inhibition (NCI screen)
SNB-75 = test: in vitro CNS cancer cell growth inhibition (NCI screen)
RXF-393 = test: in vitro renal cancer cell growth inhibition (NCI screen)
CCRF-CEM = test: in vitro leukemia cell growth inhibition (NCI screen)
HOP-62 = test: in vitro non-small cell lung cancer cell growth inhibition (NCI screen)
OVCAR-8 = test: in vitro ovarian cancer cell growth inhibition (NCI screen)
SF-268 = test: in vitro CNS cancer cell growth inhibition (NCI screen)
DLD-1 = test: in vitro colon cancer cell growth inhibition (NCI screen)
U 251 = test: in vitro CNS cancer cell growth inhibition (NCI screen)
M19-MEL = test: in vitro melanoma cell growth inhibition (NCI screen)
KM 12 = test: in vitro colon cancer cell growth inhibition (NCI screen)
SR = test: in vitro leukemia cell growth inhibition (NCI screen)
RPMI-8226 = test: as above
K-562 = test: as above
LXFL 529 = test: in vitro non-small cell lung cancer cell growth inhibition (NCI screen)
HOP-18 = test: as above
MOLT-4 = test: in vitro leukemia cell growth inhibition (NCI screen)
HCT-116 = test: in vitro colon cancer cell growth inhibition (NCI screen)
KM 20L2 = test: as above

Compound: COC(=O)CCC(=O)NC1=C(Nc2ccccc2)C(=O)c2ccccc2C1=O [Compound 54]
cytotoxicity log GI50 (MDA-N): -5.69 M | cytotoxicity log GI50 (SK-MEL-28): -5.59 M | cytotoxicity log GI50 (UACC-62): -5.75 M | cytotoxicity log GI50 (SK-MEL-2): -5.41 M | cytotoxicity log GI50 (MCF-7): -5.75 M | cytotoxicity log GI50 (M14): -5.71 M | cytotoxicity log GI50 (OVCAR-3): -5.52 M | cytotoxicity log GI50 (OVCAR-5): -5.41 M | cytotoxicity log GI50 (MDA-MB-435): -5.67 M | cytotoxicity log GI50 (HL-60(TB)): -5.46 M | cytotoxicity log GI50 (SF-539): -5.11 M | cytotoxicity log GI50 (UACC-257): -5.56 M | cytotoxicity log GI50 (MALME-3M): -5.76 M

Compound: COC(=O)CCC(=O)NC1=C(NCc2ccccc2)C(=O)c2ccccc2C1=O [Compound 55]
cytotoxicity log GI50 (SK-MEL-5): -4.92 M | cytotoxicity log GI50 (MDA-N): -4.79 M | cytotoxicity log GI50 (NCI-H522): -4.72 M | cytotoxicity log GI50 (UACC-62): -4.76 M | cytotoxicity log GI50 (HOP-92): -4.80 M | cytotoxicity log GI50 (SK-MEL-2): -4.73 M | cytotoxicity log GI50 (HCT-15): -4.77 M | cytotoxicity log GI50 (MCF-7): -4.76 M | cytotoxicity log GI50 (M14): -4.73 M | cytotoxicity log GI50 (OVCAR-3): -5.40 M | cytotoxicity log GI50 (LOX1MVI): -4.66 M | cytotoxicity log GI50 (IGROV1): -4.75 M | cytotoxicity log GI50 (MDA-MB-435): -4.72 M | cytotoxicity log GI50 (COLO-205): -4.69 M | cytotoxicity log GI50 (HL-60(TB)): -4.66 M | cytotoxicity log GI50 (SF-539): -4.70 M | cytotoxicity log GI50 (UACC-257): -4.78 M | cytotoxicity log GI50 (OVCAR-4): -4.73 M | cytotoxicity log GI50 (SW 620): -4.70 M | cytotoxicity log GI50 (NCI-H460): -4.74 M | cytotoxicity log GI50 (SNB-19): -4.66 M | cytotoxicity log GI50 (NCI-H23): -4.67 M

GI50 (human tumor cell lines): ~10 µM
Compound: CCc1nc2c(n1CC)C(=O)c1ccccc1C2=O [Compound 23]
cytotoxicity log GI50 (MDA-MB-231/ATCC): -4.77 M | cytotoxicity log GI50 (T-47D): -4.74 M | cytotoxicity log GI50 (NCI-H266): -4.54 M | cytotoxicity log GI50 (UACC-62): -4.54 M | cytotoxicity log GI50 (BT-549): -4.76 M | cytotoxicity log GI50 (PC-3): -4.73 M | cytotoxicity log GI50 (TK-10): -4.66 M | cytotoxicity log GI50 (M14): -4.63 M | cytotoxicity log GI50 (SN12C): -4.56 M | cytotoxicity log GI50 (OVCAR-3): -4.73 M | cytotoxicity log GI50 (HT 29): -4.60 M | cytotoxicity log GI50 (IGROV1): -4.61 M | cytotoxicity log GI50 (MDA-MB-435): -4.74 M | cytotoxicity log GI50 (SNB-75): -4.68 M | cytotoxicity log GI50 (COLO-205): -4.77 M | cytotoxicity log GI50 (UACC-257): -4.60 M | cytotoxicity log GI50 (SW 620): -4.57 M | cytotoxicity log GI50 (MALME-3M): -4.81 M | cytotoxicity log GI50 (RXF-393): -4.70 M

Compound: NC1=C(NC(=O)Cc2ccc(F)cc2)C(=O)c2ccccc2C1=O [Compound 3c]
cytotoxicity log GI50 (CCRF-CEM): -4.55 M | cytotoxicity log GI50 (HOP-62): -4.56 M | cytotoxicity log GI50 (NCI-H522): -4.79 M | cytotoxicity log GI50 (HOP-92): -4.48 M | cytotoxicity against tumor cells (in words) (human tumor cell lines; cancer cell line panel): inactive against all representative cancer cell lines | cytotoxicity log GI50 (TK-10): -4.57 M | cytotoxicity log GI50 (OVCAR-8): -4.47 M | cytotoxicity log GI50 (OVCAR-3): -4.88 M | cytotoxicity log GI50 (SF-268): -4.54 M | cytotoxicity log GI50 (IGROV1): -4.71 M | cytotoxicity log GI50 (DLD-1): -4.95 M | cytotoxicity log GI50 (SNB-75): -4.49 M | cytotoxicity log GI50 (HL-60(TB)): -4.59 M | cytotoxicity log GI50 (U 251): -5.09 M | cytotoxicity log GI50 (SNB-19): -4.63 M | cytotoxicity log GI50 (RXF-393): -4.68 M | cytotoxicity log GI50 (NCI-H23): -4.87 M | cytotoxicity log GI50 (M19-MEL): -5.16 M

Compound: O=C(Cc1ccccc1F)NC1=C(Cl)C(=O)c2ccccc2C1=O [Compound 2i, 2-(2-Fluorophenyl)acetamido-3-chloro-1,4-naphthoguinone]
cytotoxicity log GI50 (CCRF-CEM): -6.54 M | cytotoxicity log GI50 (KM 12): -6.29 M | cytotoxicity log GI50 (SK-MEL-28): -6.34 M | cytotoxicity log GI50 (SR): -6.32 M | cytotoxicity log GI50 (NCI-H522): -6.67 M | cytotoxicity log GI50 (UACC-62): -6.48 M | cytotoxicity log GI50 (RPMI-8226): -6.44 M | cytotoxicity log GI50 (K-562): -6.53 M | cytotoxicity log GI50 (SK-MEL-2): -6.21 M | GI50 (human tumor cell lines): 0.0251 to 2.51 µM | cytotoxicity log GI50 (M14): -6.29 M | cytotoxicity log GI50 (LXFL 529): -6.40 M | cytotoxicity log GI50 (IGROV1): -6.17 M | cytotoxicity log GI50 (SNB-75): -6.33 M | cytotoxicity log GI50 (HL-60(TB)): -6.55 M | cytotoxicity log GI50 (SF-539): -6.62 M | cytotoxicity log GI50 (HOP-18): -6.18 M | cytotoxicity log GI50 (MOLT-4): -6.60 M | cytotoxicity log GI50 (OVCAR-4): -6.22 M | cytotoxicity log GI50 (NCI-H460): -6.15 M | cytotoxicity log GI50 (HCT-116): -6.37 M | cytotoxicity log GI50 (U 251): -6.48 M | cytotoxicity log GI50 (NCI-H23): -6.25 M | cytotoxicity log GI50 (M19-MEL): -6.36 M

Compound: O=C1c2ccccc2C(=O)c2[nH]c(Cc3ccccc3F)nc21 [Compound 4b]
cytotoxicity log GI50 (NCI-H522): -4.67 M | cytotoxicity log GI50 (KM 20L2): -4.47 M | cytotoxicity log GI50 (TK-10): -4.53 M | cytotoxicity log GI50 (LXFL 529): -4.50 M | cytotoxicity log GI50 (OVCAR-3): -4.84 M | cytotoxicity log GI50 (HT 29): -4.49 M | cytotoxicity log GI50 (DLD-1): -4.79 M | cytotoxicity log GI50 (COLO-205): -4.47 M | cytotoxicity log GI50 (HL-60(TB)): -4.45 M | cytotoxicity log GI50 (SF-539): -4.51 M | cytotoxicity log GI50 (OVCAR-4): -4.55 M | cytotoxicity log GI50 (SW 620): -4.42 M | cytotoxicity log GI50 (NCI-H460): -4.47 M | cytotoxicity log GI50 (U 251): -5.10 M | cytotoxicity log GI50 (SNB-19): -4.42 M | cytotoxicity log GI50 (RXF-393): -4.69 M | cytotoxicity log GI50 (NCI-H23): -4.56 M

GI50 (human tumor cell lines): ~10 µM
Compound: CCn1c(-c2ccc(OC)cc2)nc2c1C(=O)c1ccccc1C2=O [Compound 27]
cytotoxicity log GI50 (HOP-62): -4.22 M | cytotoxicity log GI50 (NCI-H23): -4.21 M
